This data set in a line: Spectral measurements: absorbance and emission spectra, Beckman DU7400 spectrophotometer, water media. It is filed as physicochemical. As to the method: Unless otherwise stated, ultraviolet spectra (UV) were recorded for samples dissolved in MeOH or water contained in a one cm path length quartz cell using a Beckman DU-7400 spectrophotometer.

Experimental findings from patent US20060281100A1, “Thiotriphosphate nucleotide dye terminators” (priority 2005, published 2006) are described below.

As to `CCN1/C(=C/C=C/C=C/C2=[N+](CCCCCC(=O)O)c3ccc(S(=O)(=O)O)cc3C2(C)C)C(C)(C)c2cc(S(=O)(=O)[O-])ccc21` [Cy5], under “absorbance maximum of the free cyanine dye in water”, the “Abs (H2O), Cyanine Dyes” value worked out at 649 nm. Further, the “Em (H2O)” value (emission maximum in water, column stands after the cyanine dye columns) worked out at 675 nm.
